After the bases stand the sugars from the 5' end (letter, count) and the backbone: PS all phosphorothioate, else s phosphorothioate and o phosphodiester by linkage. Methylation of C is not given here. l = locked nucleic acid (LNA); d = 2'-deoxy (DNA)
Molecular target: SNHG14
Details: ASO, Human Neuronal Cell

For “AGCAACATTATTAACCAC (sugars l2 d10 l2 d1 l3, PS)”, the target mRNA inhibition (7.5 µM) was 44%.

“AGCAACATTATTAACCAC (sugars ldllldddddddllldll, PS)” showed a target mRNA inhibition (7.5 µM) of 35%.

Sequence “AGCAACATTATTAACCACC (sugars lddldlddddddldddlll, PS)” has a target mRNA inhibition (7.5 µM) of 52%.

With “AGCAACATTATTAACCACC (sugars ldldlddddddddlddlll, PS)” the target mRNA inhibition (7.5 µM) was 53%.

“AGCTTTTAACCAGAGTGG (sugars l1 d14 l3, PS)” showed a target mRNA inhibition (7.5 µM) of 66%.

In the case of “AGTTCTACTATACTTTC (sugars l1 d2 l2 d8 l4, PS)”, the target mRNA inhibition (7.5 µM) is reported as 57%.

In the case of “AGTTCTACTATACTTTC (sugars l2 d1 l2 d10 l2, PS)”, the target mRNA inhibition (7.5 µM) is reported as 58%.

For “AGTTCTACTATACTTTC (sugars llddlddddddldllll, PS)”, the target mRNA inhibition (7.5 µM) was 18%.

“AGTTCTACTATACTTTCC (sugars ldlddddddddddlddll, PS)” was tested, and the target mRNA inhibition (7.5 µM) was 61%.

In the case of “ATAACATTACTCTTAACA (sugars l3 d12 l3, PS)”, the target mRNA inhibition (0.2 µM) is reported as 22% and the target mRNA inhibition (1 µM) is reported as 40%.

In the case of “ATACCTTTCTTTAACCC (sugars l4 d11 l2, PS)”, the target mRNA inhibition (0.2 µM) is reported as 60% and the target mRNA inhibition (1 µM) is reported as 67%.

“ATATCCCTTGATTATCC (sugars l3 d11 l3, PS)” gave a target mRNA inhibition (0.2 µM) of 16% and a target mRNA inhibition (1 µM) of 18%.

“ATATTGATTCAATTCCC (sugars l1 d1 l2 d8 l5, PS)” was tested, and the target mRNA inhibition (7.5 µM) was 64%.

In the case of “ATATTGATTCAATTCCC (sugars l4 d7 l1 d3 l2, PS)”, the target mRNA inhibition (7.5 µM) is reported as 67%.

Work on “ATATTGATTCAATTCCC (sugars llldldddddddlddll, PS)” yielded a target mRNA inhibition (7.5 µM) of 52%.

For “ATCATTCTCAACAATTAA (sugars l1 d1 l4 d6 l6, PS)”, the target mRNA inhibition (7.5 µM) was 4%.

“ATCATTCTCAACAATTAA (sugars l4 d8 l1 d1 l4, PS)” showed a target mRNA inhibition (7.5 µM) of 53%.

“ATCATTCTCAACAATTAA (sugars l5 d8 l1 d1 l3, PS)” showed a target mRNA inhibition (7.5 µM) of 59%.

With “ATCATTCTCAACAATTAAA (sugars l5 d8 l2 d2 l2, PS)” the target mRNA inhibition (7.5 µM) was 57%.

ATCCAAAGTTTCTTTC (sugars l4 d10 l2, PS) was tested, and the target mRNA inhibition (0.2 µM) was 43% and the target mRNA inhibition (1 µM) was 34%.

With ATCCTATGTTAATACT (sugars l4 d10 l2, PS) the target mRNA inhibition (0.2 µM) was 14% and the target mRNA inhibition (1 µM) was 33%.

For ATCCTGATAATTAACT (sugars l4 d10 l2, PS), the target mRNA inhibition (0.2 µM) was -8% and the target mRNA inhibition (1 µM) was 5%.

“ATCTCATGACCACCTAA (sugars l3 d10 l1 d1 l2, PS)” gave a target mRNA inhibition (7.5 µM) of 60%.

With “ATCTCATGACCACCTAA (sugars ldldddddddddldlll, PS)” the target mRNA inhibition (7.5 µM) was 61%.

With “ATCTCATGACCACCTAA (sugars ldlddddddddlddlll, PS)” the target mRNA inhibition (7.5 µM) was 52%.

Work on ATCTGATCTCACACAT (sugars l3 d10 l3, PS) yielded a target mRNA inhibition (0.2 µM) of 22% and a target mRNA inhibition (1 µM) of 40%.

“ATCTTTCCATTTATTTCCA (sugars lddlddddddddddlddll, PS)” showed a target mRNA inhibition (7.5 µM) of 44%.

For “ATCTTTCCATTTATTTCCAT (sugars l1 d16 l3, PS)”, the target mRNA inhibition (7.5 µM) was 15%.

With ATGCTCACACTAATTA (sugars l4 d10 l2, PS) the target mRNA inhibition (0.2 µM) was 35% and the target mRNA inhibition (1 µM) was 48%.

“ATTGATTCAATTCCCTT (sugars ldldldddddddlldll, PS)” was tested, and the target mRNA inhibition (7.5 µM) was 65%.

“ATTGATTCAATTCCCTT (sugars llddlddddddddldll, PS)” gave a target mRNA inhibition (7.5 µM) of 64%.

Sequence “ATTGATTCAATTCCCTT (sugars llddldddddddldlll, PS)” has a target mRNA inhibition (7.5 µM) of 50%.

Sequence “ATTTACACTTAATTATACTT (sugars ldllddlddddddlllldll, PS)” has a target mRNA inhibition (7.5 µM) of 12%.

For “ATTTACACTTAATTATACTT (sugars lldlddlddddddllldlll, PS)”, the target mRNA inhibition (7.5 µM) was 10%.

“ATTTATTTCCATTTATTTTC (sugars lldldlddddddddldldll, PS)” gave a target mRNA inhibition (7.5 µM) of 55%.

“ATTTCATTAAGTCACCC (sugars l3 d11 l3, PS)” showed a target mRNA inhibition (0.2 µM) of 51% and a target mRNA inhibition (1 µM) of 53%.

“ATTTCTCTATGTCACAT (sugars l3 d11 l3, PS)” gave a target mRNA inhibition (0.2 µM) of 31% and a target mRNA inhibition (1 µM) of 35%.

Sequence “ATTTTTTTCTTACTATCTTC (sugars ldddddlddddddldddlll, PS)” has a target mRNA inhibition (7.5 µM) of 43%.

With “ATTTTTTTCTTACTATCTTC (sugars lddddlddddddddldldll, PS)” the target mRNA inhibition (7.5 µM) was 63%.

“ATTTTTTTCTTACTATCTTC (sugars ldlddldddddddddddlll, PS)” gave a target mRNA inhibition (7.5 µM) of 56%.

Work on “ATTTTTTTCTTACTATCTTC (sugars llddldldddddddldddll, PS)” yielded a target mRNA inhibition (7.5 µM) of 49%.

Sequence “CAAAGATCATTCTCAAC (sugars l5 d6 l1 d1 l4, PS)” has a target mRNA inhibition (7.5 µM) of 22%.

In the case of “CAAAGATCATTCTCAACA (sugars l1 d4 l1 d7 l5, PS)”, the target mRNA inhibition (7.5 µM) is reported as 65%.

“CAAAGATCATTCTCAACA (sugars l3 d1 l2 d10 l2, PS)” gave a target mRNA inhibition (7.5 µM) of 61%.

With “CAACATTATTAACCACCTT (sugars l1 d2 l1 d12 l3, PS)” the target mRNA inhibition (7.5 µM) was 53%.

In the case of “CAACATTATTAACCACCTT (sugars l2 d10 l2 d3 l2, PS)”, the target mRNA inhibition (7.5 µM) is reported as 43%.

“CAACATTATTAACCACCTT (sugars lldlldddddddddldlll, PS)” showed a target mRNA inhibition (7.5 µM) of 49%.

Work on “CAACATTATTAACCACCTTA (sugars l1 d15 l4, PS)” yielded a target mRNA inhibition (7.5 µM) of 36%.

Sequence “CAACATTATTAACCACCTTA (sugars l2 d4 l1 d11 l2, PS)” has a target mRNA inhibition (7.5 µM) of 37%.

For “CAACATTATTAACCACCTTA (sugars llddlddddddddddldlll, PS)”, the target mRNA inhibition (7.5 µM) was 47%.

With CAACATTATTGACACT (sugars l2 d10 l4, PS) the target mRNA inhibition (0.2 µM) was 45% and the target mRNA inhibition (1 µM) was 61%.

“CAACTCTCACTGTAACT (sugars l4 d11 l2, PS)” gave a target mRNA inhibition (0.2 µM) of 47% and a target mRNA inhibition (1 µM) of 49%.

In the case of “CACAATCAACAACAAATA (sugars l4 d12 l2, PS)”, the target mRNA inhibition (0.2 µM) is reported as 40% and the target mRNA inhibition (1 µM) is reported as 54%.

In the case of CACCACTGATTTCCTT (sugars l3 d10 l3, PS), the target mRNA inhibition (0.2 µM) is reported as 43% and the target mRNA inhibition (1 µM) is reported as 53%.

CACCTGATAACAGACC (sugars l3 d10 l3, PS) gave a target mRNA inhibition (0.2 µM) of -22%, a target mRNA inhibition (1 µM) of 7% and a target mRNA inhibition (5 µM) of 27%.

In the case of “CAGCAGGCAGATAACCTC (sugars l3 d12 l3, PS)”, the target mRNA inhibition (0.2 µM) is reported as -4%, the target mRNA inhibition (1 µM) is reported as 18% and the target mRNA inhibition (5 µM) is reported as 21%.

Work on “CAGCATTCAACCCTAAT (sugars l3 d12 l2, PS)” yielded a target mRNA inhibition (0.2 µM) of 40% and a target mRNA inhibition (1 µM) of 54%.

CAGCCATAAACTATAT (sugars l4 d10 l2, PS) was tested, and the target mRNA inhibition (0.2 µM) was 15% and the target mRNA inhibition (1 µM) was 7%.

CAGCTATTCAATAAAC (sugars l4 d10 l2, PS) showed a target mRNA inhibition (0.2 µM) of 8% and a target mRNA inhibition (1 µM) of 7%.

For “CAGCTTTTAACCAGAGTGG (sugars l1 d15 l3, PS)”, the target mRNA inhibition (7.5 µM) was 69%.

“CAGCTTTTAACCAGAGTGGC (sugars l1 d17 l2, PS)” showed a target mRNA inhibition (7.5 µM) of 40%.

CATATTGAACCAATTC (sugars l4 d10 l2, PS) gave a target mRNA inhibition (0.2 µM) of 51% and a target mRNA inhibition (1 µM) of 67%.

With CATCATATTGAACCAA (sugars l2 d10 l4, PS) the target mRNA inhibition (0.2 µM) was 52% and the target mRNA inhibition (1 µM) was 63%.

With “CATCTGATCTCACACAT (sugars l4 d11 l2, PS)” the target mRNA inhibition (0.2 µM) was 29% and the target mRNA inhibition (1 µM) was 46%.

Sequence “CATCTGCTACATATTCT (sugars l4 d11 l2, PS)” has a target mRNA inhibition (0.2 µM) of 53% and a target mRNA inhibition (1 µM) of 62%.

From the OligoGym collection
